In the NIST ThermoML archive (doi:10.1016/j.tca.2013.05.017):
“And” between values parts separate entries of the source, which are not always exact repeats. Equal entries are not always repeated.

Assay: molar heat capacity at constant pressure
Conditions: 101.33 kPa, Crystal 2, Small (less than 1 g) adiabatic calorimetry

O=S(=O)([O-])[O-].[Sr+2] [sulfuric acid, strontium salt (1:1)]
Conditions | molar heat capacity at constant pressure
145.71 K | 68.41 J/K/mol
145.74 K | 68.47 J/K/mol
146.11 K | 68.55 J/K/mol
148.91 K | 69.29 J/K/mol
148.95 K | 69.42 J/K/mol
149.31 K | 69.49 J/K/mol
150 K | 69.86 J/K/mol
152.12 K | 70.28 J/K/mol
152.16 K | 70.25 J/K/mol
152.52 K | 70.41 J/K/mol
155.34 K | 71.05 J/K/mol
155.38 K | 71.08 J/K/mol
155.74 K | 71.27 J/K/mol
158.56 K | 71.97 J/K/mol
158.6 K | 72 J/K/mol
158.97 K | 72.09 J/K/mol
160 K | 72.51 J/K/mol
161.8 K | 72.79 J/K/mol
161.84 K | 72.83 J/K/mol
162.22 K | 72.92 J/K/mol
165.05 K | 73.58 J/K/mol
165.09 K | 73.59 J/K/mol
165.46 K | 73.73 J/K/mol
168.3 K | 74.28 J/K/mol
168.34 K | 74.31 J/K/mol
168.72 K | 74.49 J/K/mol
170 K | 74.99 J/K/mol
171.55 K | 75.15 J/K/mol
171.6 K | 75.19 J/K/mol
171.99 K | 75.27 J/K/mol
174.82 K | 75.93 J/K/mol
174.86 K | 75.97 J/K/mol
175.25 K | 76.02 J/K/mol
178.09 K | 76.68 J/K/mol
178.13 K | 76.74 J/K/mol
178.53 K | 76.77 J/K/mol
180 K | 77.33 J/K/mol
181.37 K | 77.42 J/K/mol
181.41 K | 77.48 J/K/mol
181.81 K | 77.53 J/K/mol
184.66 K | 78.14 J/K/mol
184.69 K | 78.22 J/K/mol
185.09 K | 78.29 J/K/mol
187.96 K | 78.91 J/K/mol
187.99 K | 78.94 J/K/mol
188.38 K | 78.97 J/K/mol
190 K | 79.65 J/K/mol
191.26 K | 79.72 J/K/mol
191.28 K | 79.71 J/K/mol
191.67 K | 79.8 J/K/mol
194.56 K | 80.51 J/K/mol and 80.47 J/K/mol
194.96 K | 80.64 J/K/mol
197.83 K | 81.24 J/K/mol
197.85 K | 81.22 J/K/mol
198.25 K | 81.33 J/K/mol
200 K | 81.87 J/K/mol
201.09 K | 81.92 J/K/mol
201.14 K | 81.8 J/K/mol
201.53 K | 81.9 J/K/mol
204.35 K | 82.54 J/K/mol
204.42 K | 82.41 J/K/mol
204.81 K | 82.55 J/K/mol
207.6 K | 83.18 J/K/mol
207.7 K | 82.95 J/K/mol
208.08 K | 83.16 J/K/mol
210 K | 83.8 J/K/mol
210.83 K | 83.81 J/K/mol
210.94 K | 83.69 J/K/mol
211.34 K | 83.83 J/K/mol
214.05 K | 84.44 J/K/mol
214.18 K | 84.34 J/K/mol
214.58 K | 84.5 J/K/mol
217.26 K | 85.04 J/K/mol
217.41 K | 84.95 J/K/mol
217.8 K | 85.11 J/K/mol
220 K | 85.76 J/K/mol
220.45 K | 85.67 J/K/mol
220.61 K | 85.61 J/K/mol
221.01 K | 85.74 J/K/mol
223.62 K | 86.31 J/K/mol
223.8 K | 86.22 J/K/mol
224.21 K | 86.36 J/K/mol
226.78 K | 86.94 J/K/mol
226.98 K | 86.85 J/K/mol
227.39 K | 86.96 J/K/mol
229.93 K | 87.58 J/K/mol
230 K | 87.75 J/K/mol
230.13 K | 87.48 J/K/mol
230.55 K | 87.57 J/K/mol
233.05 K | 88.24 J/K/mol
233.27 K | 88.13 J/K/mol
233.75 K | 88.27 J/K/mol
236.17 K | 88.83 J/K/mol
236.39 K | 88.63 J/K/mol
236.88 K | 88.89 J/K/mol
239.32 K | 89.46 J/K/mol
239.54 K | 89.39 J/K/mol
239.99 K | 89.5 J/K/mol
240 K | 89.75 J/K/mol
242.4 K | 90.05 J/K/mol
242.63 K | 89.95 J/K/mol
243.09 K | 90.06 J/K/mol
245.47 K | 90.64 J/K/mol
245.71 K | 90.56 J/K/mol
246.17 K | 90.67 J/K/mol
248.53 K | 91.22 J/K/mol
248.77 K | 91.15 J/K/mol
249.24 K | 91.23 J/K/mol
250 K | 91.7 J/K/mol
251.58 K | 91.85 J/K/mol
251.81 K | 91.78 J/K/mol
252.29 K | 91.85 J/K/mol
254.61 K | 92.43 J/K/mol
254.84 K | 92.37 J/K/mol
255.33 K | 92.47 J/K/mol
257.63 K | 93 J/K/mol
257.87 K | 92.94 J/K/mol
258.36 K | 93.06 J/K/mol
260 K | 93.66 J/K/mol
260.65 K | 93.58 J/K/mol
260.88 K | 93.56 J/K/mol
261.38 K | 93.65 J/K/mol
263.66 K | 94.16 J/K/mol
263.89 K | 94.13 J/K/mol
264.39 K | 94.26 J/K/mol
266.66 K | 94.77 J/K/mol
266.89 K | 94.7 J/K/mol
267.4 K | 94.85 J/K/mol
269.66 K | 95.39 J/K/mol
269.89 K | 95.3 J/K/mol
270 K | 95.59 J/K/mol
270.4 K | 95.47 J/K/mol
272.64 K | 95.96 J/K/mol
272.87 K | 95.81 J/K/mol
273.15 K | 96.15 J/K/mol
273.39 K | 95.92 J/K/mol
275.63 K | 96.38 J/K/mol
275.85 K | 96.25 J/K/mol
276.38 K | 96.39 J/K/mol
278.61 K | 96.87 J/K/mol
278.83 K | 96.75 J/K/mol
279.36 K | 96.87 J/K/mol
280 K | 97.3 J/K/mol
281.59 K | 97.38 J/K/mol
281.8 K | 97.23 J/K/mol
282.43 K | 97.36 J/K/mol
284.56 K | 97.83 J/K/mol
284.76 K | 97.73 J/K/mol
285.4 K | 97.91 J/K/mol
287.65 K | 98.39 J/K/mol
287.81 K | 98.24 J/K/mol
288.36 K | 98.43 J/K/mol
290 K | 98.96 J/K/mol
290.61 K | 98.91 J/K/mol
290.76 K | 98.75 J/K/mol
291.32 K | 98.96 J/K/mol
293.57 K | 99.37 J/K/mol
293.71 K | 99.22 J/K/mol
294.28 K | 99.43 J/K/mol
296.52 K | 99.84 J/K/mol
296.64 K | 99.69 J/K/mol
297.22 K | 99.88 J/K/mol
298.15 K | 100.3 J/K/mol
299.46 K | 100.34 J/K/mol
299.56 K | 100.14 J/K/mol
300 K | 100.59 J/K/mol
300.17 K | 100.26 J/K/mol
302.4 K | 100.79 J/K/mol
302.48 K | 100.58 J/K/mol
303.1 K | 100.8 J/K/mol
305.33 K | 101.19 J/K/mol
305.39 K | 101 J/K/mol
306.03 K | 101.22 J/K/mol
308.26 K | 101.58 J/K/mol
308.3 K | 101.41 J/K/mol
308.95 K | 101.59 J/K/mol
310 K | 102.03 J/K/mol
311.18 K | 102.01 J/K/mol
311.19 K | 101.81 J/K/mol
311.87 K | 101.99 J/K/mol
314.08 K | 102.29 J/K/mol
314.09 K | 102.44 J/K/mol
314.78 K | 102.4 J/K/mol
316.97 K | 102.72 J/K/mol
316.99 K | 102.82 J/K/mol
317.69 K | 102.79 J/K/mol
319.85 K | 103.14 J/K/mol
319.89 K | 103.15 J/K/mol
320 K | 103.44 J/K/mol
320.59 K | 103.18 J/K/mol
322.73 K | 103.57 J/K/mol
322.78 K | 103.57 J/K/mol
